ChEMBL document CHEMBL1201862, “PubChem BioAssay data set” (2004)
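Dose response: 5 concentrations. Exposure: 48 h. Format: 96-well plates. Endpoint: linear interpolation; highest concentration if not reached. GI50: concentration for 50% inhibition of growth.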 Activity calls are given as the source filed them. Cut-off read from the data, not from the text of the source: active = GI50 up to about 1.1 µM and inactive = higher. Where a SMILES comes first, the peptide text is derived from it. [ ]: non-standard residue; d: D form. Ac5c = NC1(C(=O)O)CCCC1

Legend:
Assay in all cases: NCI anticancer screen, dose series, 48 h
CCRF-CEM = test system: CCRF-CEM
HCC 2998 = test system: HCC 2998
HCT-15 = test system: HCT-15
HL-60 = test system: HL-60
Hs-578T = test system: Hs-578T
IGROV-1 = test system: IGROV-1
LOX IMVI = test system: LOX IMVI
MDA-MB-435 = test system: MDA-MB-435
MDA-N = test system: MDA-N
NCI-H23 = test system: NCI-H23
NCI/ADR-RES = test system: NCI/ADR-RES
OVCAR-3 = test system: OVCAR-3
SF-295 = test system: SF-295
SK-MEL-28 = test system: SK-MEL-28
SK-MEL-2 = test system: SK-MEL-2
UACC-62 = test system: UACC-62
COLO 205 = test system: COLO 205
HOP-92 = test system: HOP-92
OVCAR-4 = test system: OVCAR-4
SR = test system: SR

In the case of `O=[N+]([O-])c1ccc2c(c1)c(OCc1ccccc1)nn2Cc1ccccc1`, the GI50 (CCRF-CEM) is reported as 40.1 µM (inactive), the GI50 (HCC 2998) is reported as 58.9 µM (inactive) and the GI50 (HCT-15) is reported as 53 µM. For the same compound, the GI50 (HL-60) was > 100 µM (inactive), the GI50 (Hs-578T) was 52.8 µM (inactive) and the GI50 (IGROV-1) was > 100 µM (inactive). The GI50 (LOX IMVI) was > 100 µM (inactive), the GI50 (MDA-MB-435) was > 100 µM (inactive) and the GI50 (MDA-N) was > 100 µM (inactive). The GI50 (NCI-H23) was > 100 µM (inactive), the GI50 (NCI/ADR-RES) was > 100 µM (inactive) and the GI50 (OVCAR-3) was > 100 µM (inactive). The GI50 (SF-295) was 51.2 µM (inactive), the GI50 (SK-MEL-28) was 72.6 µM (inactive) and the GI50 (SK-MEL-2) was > 100 µM (inactive). For the same compound, the GI50 (UACC-62) was 80.4 µM (inactive).

With `CC(C)(C)C1CCC2c3c([nH]c4ccccc34)C3C(=O)N(c4cccc([N+](=O)[O-])c4)C(=O)C3C2C1` (stereo unspecified) the GI50 (CCRF-CEM) was > 100 µM (inactive), the GI50 (COLO 205) was 21.2 µM (inactive) and the GI50 (HCC 2998) was 27.7 µM (inactive). For the same compound, the GI50 (HCT-15) was 37.1 µM, the GI50 (HOP-92) was 61.5 µM (inactive) and the GI50 (IGROV-1) was 19.8 µM (inactive). For the same compound, the GI50 (LOX IMVI) was 17.8 µM (inactive), the GI50 (MDA-MB-435) was 16.1 µM (inactive) and the GI50 (MDA-N) was 18.2 µM (inactive). The GI50 (NCI-H23) was 15.5 µM (inactive), the GI50 (NCI/ADR-RES) was 27.1 µM (inactive) and the GI50 (OVCAR-3) was 35.6 µM (inactive). For the same compound, the GI50 (OVCAR-4) was 25.5 µM (inactive), the GI50 (SF-295) was 53.7 µM (inactive) and the GI50 (SK-MEL-28) was 21 µM (inactive). For the same compound, the GI50 (SK-MEL-2) was 24.5 µM (inactive), the GI50 (SR) was 18.2 µM (inactive) and the GI50 (UACC-62) was 23.4 µM (inactive).

`O=C(O)CCC[C@]1(O)O[C@@]2(CCCC2=O)[C@]2(O)CCC[C@@]21O` was tested, and the GI50 (COLO 205) was > 100 µM (inactive), the GI50 (HCT-15) was over 100 µM and the GI50 (HL-60) was > 100 µM (inactive). For the same compound, the GI50 (HOP-92) was > 100 µM (inactive), the GI50 (Hs-578T) was > 100 µM (inactive) and the GI50 (IGROV-1) was > 100 µM (inactive). The GI50 (LOX IMVI) was > 100 µM (inactive), the GI50 (MDA-N) was > 100 µM (inactive) and the GI50 (NCI-H23) was > 100 µM (inactive). For the same compound, the GI50 (NCI/ADR-RES) was > 100 µM (inactive), the GI50 (OVCAR-3) was > 100 µM (inactive) and the GI50 (OVCAR-4) was > 100 µM (inactive). For the same compound, the GI50 (SF-295) was 4.24 µM (inactive), the GI50 (SK-MEL-28) was > 100 µM (inactive) and the GI50 (SK-MEL-2) was > 100 µM (inactive). The GI50 (SR) was > 100 µM (inactive) and the GI50 (UACC-62) was > 100 µM (inactive).

For `COCn1cnc2c(=O)n(-c3ccc(C)cc3)c(=S)n(-c3ccc(C)cc3)c21`, the GI50 (CCRF-CEM) was > 100 µM (inactive), the GI50 (COLO 205) was > 100 µM (inactive) and the GI50 (HCC 2998) was > 100 µM (inactive). The GI50 (HCT-15) was over 100 µM, the GI50 (HL-60) was > 100 µM (inactive) and the GI50 (HOP-92) was 71.8 µM (inactive). For the same compound, the GI50 (Hs-578T) was > 100 µM (inactive), the GI50 (IGROV-1) was > 100 µM (inactive) and the GI50 (LOX IMVI) was > 100 µM (inactive). For the same compound, the GI50 (MDA-MB-435) was > 100 µM (inactive), the GI50 (NCI-H23) was > 100 µM (inactive) and the GI50 (NCI/ADR-RES) was > 100 µM (inactive). For the same compound, the GI50 (OVCAR-3) was > 100 µM (inactive), the GI50 (OVCAR-4) was > 100 µM (inactive) and the GI50 (SF-295) was > 100 µM (inactive). The GI50 (SK-MEL-28) was > 100 µM (inactive), the GI50 (SK-MEL-2) was > 100 µM (inactive) and the GI50 (SR) was > 100 µM (inactive). For the same compound, the GI50 (UACC-62) was > 100 µM (inactive).

With `CN(CCO)CCCC1COc2ccccc2O1` (stereo unspecified) the GI50 (CCRF-CEM) was > 100 µM (inactive), the GI50 (COLO 205) was > 100 µM (inactive) and the GI50 (HCC 2998) was > 100 µM (inactive). The GI50 (HCT-15) was over 100 µM, the GI50 (HL-60) was > 100 µM (inactive) and the GI50 (HOP-92) was > 100 µM (inactive). For the same compound, the GI50 (IGROV-1) was > 100 µM (inactive), the GI50 (MDA-N) was > 100 µM (inactive) and the GI50 (NCI-H23) was > 100 µM (inactive). For the same compound, the GI50 (NCI/ADR-RES) was > 100 µM (inactive), the GI50 (OVCAR-3) was > 100 µM (inactive) and the GI50 (OVCAR-4) was > 100 µM (inactive). The GI50 (SF-295) was 51.3 µM (inactive), the GI50 (SK-MEL-28) was > 100 µM (inactive) and the GI50 (SR) was > 100 µM (inactive). The GI50 (UACC-62) was > 100 µM (inactive).

`O/N=N\c1nc(-c2ccccn2)nc2ccccc12` was tested, and the GI50 (CCRF-CEM) was 0.441 µM (active), the GI50 (COLO 205) was 6.15 µM (inactive) and the GI50 (HCC 2998) was 9.71 µM (inactive). For the same compound, the GI50 (HCT-15) was 1.53 µM, the GI50 (HL-60) was 0.984 µM (active) and the GI50 (Hs-578T) was > 100 µM (inactive). For the same compound, the GI50 (IGROV-1) was 17 µM (inactive), the GI50 (MDA-N) was 19.6 µM (inactive) and the GI50 (NCI-H23) was 35.2 µM (inactive). The GI50 (NCI/ADR-RES) was 7.78 µM (inactive), the GI50 (OVCAR-3) was 0.743 µM (active) and the GI50 (OVCAR-4) was 8.05 µM (inactive). For the same compound, the GI50 (SF-295) was 22 µM (inactive), the GI50 (SK-MEL-28) was 16 µM (inactive) and the GI50 (SK-MEL-2) was 4.68 µM (inactive). For the same compound, the GI50 (SR) was 2.38 µM (inactive) and the GI50 (UACC-62) was 7.18 µM (inactive).

`COC(CCC[N+](C)(C)C)CC[N+](C)(C)C` (stereo unspecified) was tested, and the GI50 (CCRF-CEM) was > 100 µM (inactive), the GI50 (COLO 205) was > 100 µM (inactive) and the GI50 (HCC 2998) was > 100 µM (inactive). For the same compound, the GI50 (HCT-15) was over 100 µM, the GI50 (HL-60) was > 100 µM (inactive) and the GI50 (IGROV-1) was > 100 µM (inactive). For the same compound, the GI50 (MDA-N) was > 100 µM (inactive), the GI50 (NCI-H23) was > 100 µM (inactive) and the GI50 (NCI/ADR-RES) was > 100 µM (inactive). For the same compound, the GI50 (OVCAR-3) was > 100 µM (inactive), the GI50 (OVCAR-4) was > 100 µM (inactive) and the GI50 (SF-295) was > 100 µM (inactive). For the same compound, the GI50 (SK-MEL-28) was > 100 µM (inactive), the GI50 (SR) was > 100 µM (inactive) and the GI50 (UACC-62) was > 100 µM (inactive).

`COC(=O)C1(NC(=O)C(C)NC(=O)C(CCCCN)NC(=O)C(CC(C)C)NC(C)=O)CCCC1` (stereo unspecified) (Ac-LKA[Ac5c]-OMe; configuration not given here) was tested, and the GI50 (CCRF-CEM) was > 100 µM (inactive), the GI50 (COLO 205) was > 100 µM (inactive) and the GI50 (HCC 2998) was > 100 µM (inactive). The GI50 (HCT-15) was over 100 µM, the GI50 (HL-60) was > 100 µM (inactive) and the GI50 (Hs-578T) was > 100 µM (inactive). The GI50 (IGROV-1) was > 100 µM (inactive), the GI50 (MDA-MB-435) was > 100 µM (inactive) and the GI50 (MDA-N) was > 100 µM (inactive). The GI50 (OVCAR-4) was > 10 µM (inactive), the GI50 (SF-295) was > 100 µM (inactive) and the GI50 (SK-MEL-28) was > 100 µM (inactive). For the same compound, the GI50 (SR) was > 100 µM (inactive).
